# Earlier results in patent US6709666B2, “Insecticidal mat and heat-transpiration insecticidal method using the same” (Dainihon Jochugiku Co., Ltd., priority 2000, dated 2004).
# Details: at 20° C.
smiles,measurement,value
C#CC(OC(=O)C1C(C=C(C)C)C1(C)C)/C(C)=C/CC (stereo not shown) [empenthrin],vapor pressure,87 mPa
